Like-named read-outs stand apart in the source and are kept apart here.
Columns and labels:
[1] = test system: HBV infected primary human hepatocytes; conditions: Tsai et al. 2017, Bam et al. 2016; cited from earlier work
[2] = patients with mild allergic asthma; Tsitoura et al. 2015; cited from earlier work
[3] = test system: NFκB pathway in Ramos-blue cells; test: Ramos-Blue NFκB/SEAP reporter assay with cysteine-capped linker-payloads, 72 h (Example 15); format: cell-based; conditions: read-out: Relative Activation
Experimental: A 50 mM cysteine stock was prepared in 0.1 M PBS pH 7.4. 10 equivalents of 50 mM cysteine were added to 1 equivalent of linker-payload to create a 2.50 mM solution. The reaction was vortexed and sat at room temperature for an hour to allow for the Michael addition to occur. After an hour, an aliquot was taken and run via UPLC-MS to ensure for the complete Michael reaction. The reaction was diluted to 1 mM using 0.1M PBS pH 7.4. The 1 mM solution was diluted to 500 uM and 50 uM in a 96-well plate to afford a final concentration of 50 uM and 5 uM in the cell suspension. The cell density and viability were calculated using the Countess Cell Counter and the proper volume of cells was removed in order to have a seeding density of 0.2×10^6 cells/mL per well. 135 uL of cell suspension was added to each well in a 96-well plate along with 15 uL of the corresponding linker-payload treatment. Each concentration was run in triplicate and incubated at 37° C. with 5% CO2 for 72 hours.
Invivogen's QUANTI-Blue™ solution was prepared by adding 200 uL of QB reagent and 200 uL of QB buffer to 19.6 mL of water. The resulting solution was vortexed and incubated at room temperature for ten minutes. The 96-well plate was centrifuged at 1990 rpm for ten minutes. Then, 40 uL of cell supernatant was added to 160 uL of the prepared QUANTI-Blue™ solution and incubated at 37° C. for 24 hours. The plate was read using the Molecular Devices i3x plate reader at a wavelength of 630 nm to determine the amount of SEAP production.

hepatitis C virus = conditions: treatment of hepatitis C virus; Fidock et al. 2011; cited from earlier work
[4] = Linker-Payload Dose 5 uM, cysteine-capped, 72 hours, SEAP at 630 nm
[5] = Linker-Payload Dose 50 uM, cysteine-capped, 72 hours, SEAP at 630 nm

Compound | activation at 5 µM [3, 4] | activation at 50 µM [3, 5] | further results
CCCCOc1nc(N)c2c(n1)N(Cc1cccc(CN3CCCC3)c1)CC(=O)N2 [GS-9620] |  |  | Antiviral activity [1]: no antiviral activity
CCC[C@H](C)Oc1nc(N)c2[nH]c(=O)n(CCCCCN3CCCCC3)c2n1 [GSK-2245035] |  |  | Efficacy on allergen-induced asthmatic response [2]: lack efficacy
CCOCc1nc2c(NC(=O)OCc3ccc(NC(=O)C(CCCNC(N)=O)NC(=O)C(NC(=O)CCCCCN4C(=O)C=CC4=O)C(C)C)cc3)nc3ccccc3c2n1CC(C)(C)O (centres unmarked) [Mc_ValCitPABC_Resiquimod, 4-(2-(2-(6-(2,5-Dioxo-2,5-dihydro-1H-pyrrol-1-yl)hexanamido)-3-methylbutanamido)-5-ureidopentanamido)benzyl 2-(ethoxymethyl)-1-(2-hydroxy-2-methylpropyl)-1H-imidazo[4,5-c]quinolin-4-ylcarbamate] | 18.6% | -20.8% | 
CCCCc1nc2c(N)nc3ccccc3c2n1Cc1ccc(CNC(=O)C(CCCNC(N)=O)NC(=O)C(NC(=O)CCCCCN2C(=O)C=CC2=O)C(C)C)cc1 (centres unmarked) [Mc_ValCit_E66, N-(1-(1-(4-((4-amino-2-butyl-1H-imidazo[4,5-c]quinolin-1-yl)methyl)benzylamino)-1-oxo-5-ureidopentan-2-ylamino)-3-methyl-1-oxobutan-2-yl)-6-(2,5-dioxo-2,5-dihydro-1H-pyrrol-1-yl)hexanamide] | 125% | -51.4% | 
CCCCc1nc2c(N)nc3ccccc3c2n1Cc1ccc(NC(=O)C(CCCNC(N)=O)NC(=O)C(NC(=O)CCCCCN2C(=O)C=CC2=O)C(C)C)cc1 (centres unmarked) [Mc_ValCit_E104, N-(1-(1-(4-((4-amino-2-butyl-1H-imidazo[4,5-c]quinolin-1-yl)methyl)phenylamino)-1-oxo-5-ureidopentan-2-ylamino)-3-methyl-1-oxobutan-2-yl)-6-(2,5-dioxo-2,5-dihydro-1H-pyrrol-1-yl)hexanamide] | 238% | -50.9% | 
CCOCc1cc2c(NC(=O)C(CCCNC(N)=O)NC(=O)C(NC(=O)CCCCCN3C(=O)C=CC3=O)C(C)C)nc3ccccc3c2n1CC(C)(C)O (centres unmarked) [Mc_ValCit_Resiquimod, 6-(2,5-Dioxo-2,5-dihydro-1H-pyrrol-1-yl)-N-(1-(1-(2-(ethoxymethyl)-1-(2-hydroxy-2-methylpropyl)-1H-pyrrolo[3,2-c]quinolin-4-ylamino)-1-oxo-5-ureidopentan-2-ylamino)-3-methyl-1-oxobutan-2-yl)hexanamide] |  |  | activation at 5 µM ([3]; 72 h): 11.4%; activation at 50 µM ([3]; 72 h): -23.1%
CCc1nc2c(N)nc3ccccc3c2n1CCCCNS(C)(=O)=O [PF-4878691] |  |  | Therapeutic index (hepatitis C virus): low therapeutic index
